Our source for the inhibition and IC50 values is US8168651B2, “Protein kinase modulators” (Cylene Pharmaceuticals, Inc., priority 2008, dated 2012).

Like-named read-outs stand apart in the source and are kept apart here.

Test [1] concerns the target recombinant human CK2 (Homo sapiens (Human), UniProt P68400). Description: CK2 assay (cell-free, 33P-ATP filter plate). The class given is biochemical. The settings on record: 500 nM compound, read-out: CK2: % inh 500 nM.
Test [2] deals with HCT-116 human colorectal carcinoma cells. The test is described as follows: Cell-proliferation assay using Alamar Blue dye.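 Further: cells exposed to compound for about 4 days, then Alamar Blue added and dye fluorescence read after about 4 h, compared with medium-only control wells.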 The conditions noted are these: Homo sapiens. The class given is cell-based. In general terms: Resazurin is reduced to fluorescent resorufin, in cell work by metabolically active cells.
Test [3] has as its target recombinant human PIM1 (Homo sapiens (Human), UniProt P11309). Description: PIM-1 kinase activity in cell-free in vitro assay. Format: biochemical. The conditions noted are these: for inhibition at 0.5 µM: 500 nM compound, read-out: PIM-1: % inh 500 nM.
The subject of test [4] is K-562. Description: Cell proliferation modulatory activity, K-562. The class given is cell-based. The settings on record: Homo sapiens, K562; K-562 cells.
Where [5] appears, read: HCT-116, HCT-116, second column, read-out: HCT-116 (uM), cell proliferation modulatory activity.
[6] abbreviates: HCT-116, second HCT-116 column (c8), read-out: HCT-116 (uM) cell proliferation modulatory activity.

Chain of recombinant human CK2 (P68400 whole entry): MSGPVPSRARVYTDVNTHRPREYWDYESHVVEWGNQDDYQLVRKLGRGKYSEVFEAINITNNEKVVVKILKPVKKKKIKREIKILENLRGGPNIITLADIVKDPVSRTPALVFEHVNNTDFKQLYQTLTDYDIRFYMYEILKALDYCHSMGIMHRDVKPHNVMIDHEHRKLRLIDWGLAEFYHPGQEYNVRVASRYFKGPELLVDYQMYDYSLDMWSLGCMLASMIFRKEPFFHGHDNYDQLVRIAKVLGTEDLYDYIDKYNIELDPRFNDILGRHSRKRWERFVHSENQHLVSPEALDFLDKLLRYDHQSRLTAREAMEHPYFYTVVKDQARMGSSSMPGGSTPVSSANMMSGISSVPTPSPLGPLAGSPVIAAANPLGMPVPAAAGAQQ
Chain of recombinant human CK2 (P67870 whole entry partner): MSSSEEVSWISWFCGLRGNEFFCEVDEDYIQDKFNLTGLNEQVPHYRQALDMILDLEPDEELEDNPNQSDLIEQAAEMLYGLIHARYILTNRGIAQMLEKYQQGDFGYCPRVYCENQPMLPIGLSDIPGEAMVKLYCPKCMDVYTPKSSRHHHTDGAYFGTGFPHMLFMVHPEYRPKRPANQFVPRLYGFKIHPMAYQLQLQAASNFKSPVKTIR
Chain of recombinant human PIM1 (P11309 whole entry): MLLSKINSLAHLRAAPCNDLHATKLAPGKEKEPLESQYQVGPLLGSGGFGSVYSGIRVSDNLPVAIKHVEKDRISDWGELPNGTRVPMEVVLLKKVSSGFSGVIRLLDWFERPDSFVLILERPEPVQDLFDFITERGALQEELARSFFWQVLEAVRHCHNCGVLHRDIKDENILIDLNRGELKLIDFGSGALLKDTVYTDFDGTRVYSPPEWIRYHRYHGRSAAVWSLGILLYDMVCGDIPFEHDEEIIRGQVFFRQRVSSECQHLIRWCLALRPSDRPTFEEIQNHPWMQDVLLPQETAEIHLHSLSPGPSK

Turning to `CC(C)(C)OC(=O)CCNC(=O)c1cccc(Nc2nc3cc(C(=O)O)ccc3c3sccc23)c1`, the inhibition at 0.5 µM in test [1] (cell-free) amounted to 65.5%; in test [3] (cell-free) it was 22.4%. Besides, the IC50 in test [2] (setting [5]) is greater than 10 µM.
Take `O=C(O)c1ccc2c(c1)nc(NCCn1ccnc1)c1ccncc12`: the IC50 was greater than 10 µM in test [2] (setting [6]), greater than 10 µM in test [4] and greater than 1100 nM in test [3] (cell-free assay). The inhibition at 0.5 µM in test [3] (cell-free assay) came to 51.8%.
In the case of `CN(c1ccccc1)c1nc2cc(C(=O)NC3CC3)ccc2c2cnc(NC3CC3)nc12`, the IC50 in test [2] (setting [6]) and in test [4] was greater than 10 µM throughout. For the same molecule, the inhibition at 0.5 µM in test [3] (cell-free assay) worked out at 16.1%.
On to `COC(=O)c1ccc2c(c1)nc(Nc1ccccc1)c1nc(S(C)(=O)=O)ncc12`, for which the inhibition at 0.5 µM was -44.2% in test [1] (cell-free) and -27.8% in test [3] (cell-free). Besides, the IC50 in test [2] (setting [5]) came out at 0.967 µM.
As for `CN(C)C(=O)Cc1cccc(Nc2nc3cc(C(=O)O)ccc3c3sccc23)c1`, the inhibition at 0.5 µM was found to be 55.4% in test [1] (cell-free) and 42.5% in test [3] (cell-free). Further, in test [2] (setting [5]), the IC50 is greater than 10 µM.
As to `CC(C)(C)OC(=O)CCNC(=O)c1cccc(Nc2nc3cc(-c4nnn[nH]4)ccc3c3sccc23)c1`, the inhibition at 0.5 µM is 40.5% in test [1] (cell-free) and -11.7% in test [3] (cell-free). Further, the IC50 in test [2] (setting [5]) is greater than 10 µM.
`O=C(O)c1ccc2c(c1)nc(NCCc1ccccc1)c1nccnc12`: the inhibition at 0.5 µM in test [1] (cell-free assay) is 5.49%; in test [3] (cell-free assay), -26%. In addition, in test [2] (setting [6]), the IC50 is greater than 10 µM.
For the molecule `O=C(O)c1ccc2c(c1)nc(Nc1cccc(C(=O)Nc3ccccc3)c1)c1ccsc12`, the inhibition at 0.5 µM is 37.7% in test [1] (cell-free) and -20.9% in test [3] (cell-free). In test [2] (setting [5]), the IC50 is greater than 10 µM.
Regarding `COCCNC(=O)c1cccc(Nc2nc3cc(C(=O)O)ccc3c3sccc23)c1`, the results for the inhibition at 0.5 µM in test [1] (cell-free) and in test [3] (cell-free) were 65.2% and 12%, respectively. Further, the IC50 in test [2] (setting [5]) was greater than 10 µM.
For the molecule `O=C(O)c1ccc2c(c1)nc(NN1CCCCC1)c1ccncc12`, the results for the IC50 in test [2] (setting [6]), in test [4] and in test [3] (cell-free assay) were greater than 10 µM, greater than 10 µM and greater than 1100 nM, respectively.
Regarding `CN(C)C(=O)c1ccc2c(c1)nc(N(C)c1ccccc1)c1nc(NC3CC3)ncc12`, the IC50 in test [2] (setting [6]) was 5.19 µM; in test [4] it was greater than 10 µM. Moreover, the inhibition at 0.5 µM in test [3] (cell-free assay) is -0.201%.
`O=C(O)c1ccc2c(c1)nc(N1CCc3c([nH]c4ccccc34)C1)c1ccncc12`: the IC50 in test [2] (setting [6]) and in test [4] was greater than 10 µM in each case. In addition, the inhibition at 0.5 µM in test [3] (cell-free assay) stood at 38.8%.
For the molecule `CN(c1ccccc1)c1nc2cc(C(=O)O)ccc2c2cnc(NC3CC3)nc12`, the IC50 in test [2] (setting [6]) and in test [4] was greater than 10 µM each time. In test [3] (cell-free assay), the inhibition at 0.5 µM came to 31.4%.
On to `O=C(O)c1ccc2c(c1)nc(Nc1cccc(C(=O)NCc3cccnc3)c1)c1ccsc12`, for which the inhibition at 0.5 µM was 62.2% in test [1] (cell-free) and 25.8% in test [3] (cell-free). Also, in test [2] (setting [5]), the IC50 is greater than 10 µM.
In the case of `Cc1cc(CNC(=O)c2cccc(Nc3nc4cc(C(=O)O)ccc4c4sccc34)c2)no1`, the inhibition at 0.5 µM in test [1] (cell-free) worked out at 62.7%; in test [3] (cell-free) it was 10.6%. In addition, the IC50 in test [2] (setting [5]) is greater than 10 µM.
Turning to `CN(c1ccccc1)c1nc2cc(C(=O)O)ccc2c2nccnc12`, the inhibition at 0.5 µM in test [1] (cell-free assay) turned out to be 19.3%; in test [3] (cell-free assay) it was 1.15%. In addition, the IC50 in test [2] (setting [6]) is greater than 10 µM.
Take `O=C(O)c1ccc2c(c1)nc(Nc1ccccc1)c1ncccc12`: the IC50 in test [2] (setting [6]) and in test [4] was greater than 10 µM each time.
For `O=C(O)c1ccc2c(c1)nc(Nc1cccc(F)c1)c1nccnc12`, the inhibition at 0.5 µM in test [1] (cell-free assay) turned out to be 88.7%; in test [3] (cell-free assay), 21.9%. In test [2] (setting [6]), the IC50 was greater than 10 µM.
Turning to `COC(=O)c1ccc2c(c1)nc(Nc1ccccc1)c1nc(SC)ncc12`, the inhibition at 0.5 µM in test [1] (cell-free) was 6.43%; in test [3] (cell-free), -26.7%. Further, the IC50 in test [2] (setting [5]) turned out to be 9.56 µM.
In the case of `O=C(O)c1ccc2c(c1)nc(Nc1cccc(-c3ccccc3)c1)c1ccsc12`, the inhibition at 0.5 µM stood at 65.8% in test [1] (cell-free) and 4.58% in test [3] (cell-free). The IC50 in test [2] (setting [5]) was greater than 10 µM.
In the case of `O=C(O)c1ccc2c(c1)nc(Nc1cccc(C(=O)Nc3nccs3)c1)c1ccsc12`, the values for the inhibition at 0.5 µM in test [1] (cell-free) and in test [3] (cell-free) were 52.9% and 5.99%, respectively. In test [2] (setting [5]), the IC50 is greater than 10 µM.
For the molecule `CN(C)C(=O)c1cccc(Nc2nc3cc(C(=O)O)ccc3c3sccc23)c1`, the results for the inhibition at 0.5 µM in test [1] (cell-free) and in test [3] (cell-free) were 21.3% and -12.2%, respectively. The IC50 in test [2] (setting [5]) was greater than 10 µM.
For `O=C(O)c1ccc2c(c1)nc(Nc1ccccc1)c1nccnc12`, the inhibition at 0.5 µM was 41.5% in test [1] (cell-free assay) and -7.65% in test [3] (cell-free assay). The IC50 in test [2] (setting [6]) was greater than 10 µM.
For the molecule `O=C(Cc1cccc(Nc2nc3cc(C(=O)O)ccc3c3sccc23)c1)NC1CC1`, the results for the inhibition at 0.5 µM in test [1] (cell-free) and in test [3] (cell-free) were 51.2% and 19.1%, respectively. Besides, in test [2] (setting [5]), the IC50 was greater than 10 µM.
On to `OCCNc1nc2cc(-c3nnn[nH]3)ccc2c2sccc12`, for which the inhibition at 0.5 µM in test [1] (cell-free assay) was determined as 51.3%. In addition, in test [3] (cell-free assay), the inhibition at 0.5 µM was 101% and the IC50 was 143 nM.
Take `CC(=O)N1CCN(C(=O)c2cccc(Nc3nc4cc(C(=O)O)ccc4c4sccc34)c2)CC1`: the results for the inhibition at 0.5 µM in test [1] (cell-free) and in test [3] (cell-free) were 36.5% and 20.8%, respectively. In addition, in test [2] (setting [5]), the IC50 is greater than 10 µM.
Regarding `N#Cc1ccc2c(c1)nc(Nc1cccc(F)c1)c1ccsc12`, the results for the inhibition at 0.5 µM in test [1] (cell-free assay) and in test [3] (cell-free assay) were 3.06% and -4.85%, respectively.
Take `O=C(O)c1ccc2c(c1)nc(Nc1ccccc1Oc1ccccc1)c1ccncc12`: the results for the inhibition at 0.5 µM in test [1] (cell-free assay) and in test [3] (cell-free assay) were 96.5% and 25%, respectively. For the same molecule, in test [2] (setting [6]), the IC50 was greater than 10 µM.
As to `CCN1CCCC1CNc1nc2cc(C#N)ccc2c2ccsc12` (stereo not drawn), the inhibition at 0.5 µM in test [1] (cell-free assay) was -29.4%; in test [3] (cell-free assay), -9.29%.
Regarding `O=c1[nH]c2cc(F)ccc2c2cnccc12`, the inhibition at 0.5 µM in test [1] (cell-free assay) was -1.1%; in test [3] (cell-free assay) it was 15.3%.
For the molecule `N#Cc1ccc2c(c1)nc(Oc1ccc3ncccc3c1)c1ccsc12`, the inhibition at 0.5 µM is -7.33% in test [1] (cell-free assay) and -22.2% in test [3] (cell-free assay).
Regarding `NCc1ccc2c(c1)nc(Nc1cccc(F)c1)c1ccsc12`, the inhibition at 0.5 µM in test [1] (cell-free assay) was -8.77%; in test [3] (cell-free assay), -16.4%.
`CC(=O)c1ccc(Oc2nc3cc(C#N)ccc3c3sccc23)cc1`: the values for the inhibition at 0.5 µM in test [1] (cell-free assay) and in test [3] (cell-free assay) were -17.9% and 1.38%, respectively.
As to `CN1CCCCC1CNc1nc2cc(C#N)ccc2c2ccsc12` (stereo not drawn), the inhibition at 0.5 µM is 5.51% in test [1] (cell-free assay) and 59.5% in test [3] (cell-free assay).
In the case of `Cc1cc(NC(=O)NCc2ccc3c(c2)nc(Nc2cccc(F)c2)c2ccsc23)c(C(F)(F)F)o1`, the inhibition at 0.5 µM in test [1] (cell-free assay) was -9.99%; in test [3] (cell-free assay), -17.5%.
For `CN(C)CCOc1nc2cc(-c3nnn[nH]3)ccc2c2sccc12`, the inhibition at 0.5 µM came out at 31.4% in test [1] (cell-free assay) and 91.6% in test [3] (cell-free assay).
With `COC(=O)c1ccc2c(c1)nc(Nc1cccc(CC(=O)O)c1)c1ccsc12`, the inhibition at 0.5 µM in test [1] (cell-free) was -6.27%; in test [3] (cell-free) it was 8.94%. In test [2] (setting [5]), the IC50 is greater than 10 µM.
As for `FC(F)(F)CCNc1nc2cc(-c3nnn[nH]3)ccc2c2sccc12`, the values for the inhibition at 0.5 µM in test [1] (cell-free assay) and in test [3] (cell-free assay) were 58.4% and 92.3%, respectively.
For `O=C(O)c1cccc2c1nc(Nc1cccc(Cl)c1)c1ccncc12` [drawing 2001] the same measures were 15.5% and 20.2%.
For `COC(=O)c1cccc2c1nc(Nc1ccccc1)c1ccncc12` [drawing 2003], the inhibition at 0.5 µM in test [1] (cell-free assay) was -7.87%; in test [3] (cell-free assay), 3.96%.
